The source of these data is patent US20240216519A1, “SMALL HYDROPHOBIC PROTEIN DRUG CONJUGATES AND USES THEREOF” (priority 2021, published 2024).

Values joined by “and” are separate entries in the source; they are usually repeats but may differ in a detail not shown here. Equal entries are not always repeated. Where no end group is shown, it is not given here. TAMRA = carboxytetramethyl rhodamine on alpha-amino group of Met1

Series [1] deals with choroid plexus of the GPR125 KO mouse brain. The series can be described thus: TAMRA labelled SH-protein binding to cryo-sections, GPR125 KO mouse brain. To be noted: 1 h incubation. The procedure:
(§1) SH protein (SEQ ID NO: 74) with a N-terminal carboxytetramethyl rhodamine attached through its carboxyl-group to the N-terminal alpha amino-group of the first Methionine was used for making the TAMRA labelled SH-protein (SEQ ID NO: 129). A mixture of 5-(and-6)-Carboxytetramethylrhodamine was used.
(§2) A whole body perfusion was performed of mice and brains were dissected and frozen at −80C. Cryo-sections of mouse brains (WT and GPR125 KO mouse (Spina et al. 2021)) were generated and the TAMRA-labelled SH-protein was incubated on the cryosections at different concentrations or buffer. Afterwards the sections were mounted with mounting media containing a DAPI stain.

Series [2] deals with choroid plexus of the WT mouse brain. Kind of series: TAMRA labelled SH-protein binding to cryo-sections, WT mouse brain. Conditions: 1 h incubation. The procedure:
as §1, §2

Series [3] in a line: Plasma and CSF concentrations after injection into vena cava (RIA GLP-1 assay). The class given is in vivo. Conditions: rat. The procedure:
Male Sprague Dawley rats were purchased from Charles Rivers. Animals were anesthetized by hypnorm/dormicum, and restrained in a stereotactic instrument. […] Blood samples were collected prior to the injection of test compounds and straight after CSF aspiration.
The assay buffer was 100 mM Tris buffer with pH 8.5 containing 1% (wt/vol) human serum albumin, 0.01 mM valine-pyrrolidide and 500 KIE aprotinin (final concentrations). […] Plasma and CSF concentrations were measured after dilution in assay buffer. Free and bound moieties were separated with plasma-coated charcoal.

In series [4] the test system is C57BL/6J mice. The series can be described thus: Food intake of fasted C57BL/6J mice after i.p. injection (Example 8). Type of series: in vivo, mouse. Conditions: 200 nmol/kg i.p. The procedure: Female C57BL/6J mice were purchased from Charles Rivers. […] The animals were housed in individual cages, with access to food and water, and food intake was measured 1 and 2 hours after injection.

The next series has as its system CaCo-2 cells. The series can be described thus: Transport study: diffusion of FITCs through tight monolayer of Caco2 cells. The class given is cell-based. To be noted: basal addition of FITCs together with ligand. The procedure: CaCo-2 cells were seeded in transwell chambers (basal) and two times TEER was measured until day 17-21 post seeding. TEER experiments were performed afte 17-21 days post seeding in wells with higher TEER as 1000 ohms (proof of a tight cell monolatyer. Caco2 cells were infected basal with mumps virus (MuV Jerryl Lynn strain, WT or SH-protein deletion virus) at a multiplicity of infection of 3. TEER was measured continuously performing CellZcope experiments.
Transport studies were performed until day 17-21 post seeding as described above for the Cellzcope experiments. Ligand or control induced changes in the tightness of the cell monolayer was measured passively by the basal addition of the fluorescence dye (FITCs) together with the ligands or controls. Increase of FITCs apical was detected by collecting samples after different time points.
A general note: Caco-2 cells form a polarised layer with tight junctions and transporters.

For the next series, the target named is human GLP-1 receptor (Homo sapiens, UniProt P43220). Kind of series: cAMP accumulation, human GLP-1 receptor. Also on record: expressed in transfected cells; host or cells: COS-7 (methods). Type of series: cell-based. The procedure: (§3) Transient transfection of COS-7 cells was performed using calcium phosphate precipitation method. Briefly, a total of 10 ug of receptor DNA was diluted in TE-buffer ([…] Tris-HCl and 1 mM EDTA, pH 7.5) to a total of 105 ul, to which 15 ul of 2 M CaCl2) was added. The DNA-calcium co-precipitation was gently and slowly added to 120 ul 2× HEPES-buffered saline (HBS), and the transfection mixture was incubated at room temperature for 45 min. The total transfection mixture was added to the cells and incubated for 5 hours at 37° C. and 10% CO2, with the addition of 75 ul chloroquine to the growth medium. After 5 hours, the transfection medium was removed and replaced with regular growth medium. The cells were used in experiment 40-48 h after termination of the transfection procedure.
Chain of human GLP-1 receptor (P43220 24-463): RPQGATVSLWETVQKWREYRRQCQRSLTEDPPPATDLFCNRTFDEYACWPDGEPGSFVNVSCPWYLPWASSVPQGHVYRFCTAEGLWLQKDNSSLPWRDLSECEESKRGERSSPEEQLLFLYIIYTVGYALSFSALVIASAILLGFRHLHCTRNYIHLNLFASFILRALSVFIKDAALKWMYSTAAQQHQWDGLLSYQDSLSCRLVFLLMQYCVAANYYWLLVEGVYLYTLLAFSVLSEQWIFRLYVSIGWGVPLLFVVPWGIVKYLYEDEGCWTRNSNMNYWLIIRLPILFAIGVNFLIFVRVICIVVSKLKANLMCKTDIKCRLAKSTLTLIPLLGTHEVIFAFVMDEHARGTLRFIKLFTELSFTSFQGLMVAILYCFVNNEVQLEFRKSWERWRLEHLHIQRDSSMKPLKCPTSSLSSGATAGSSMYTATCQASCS
(§4) For the cAMP assay, the COS-7 cells were seeded into 96-well plates (35.000 cells/well) and washed with HBS prior to incubation with 100 ul […] isobutylmethylzanthine (IBMX) for 30 min at 37° C. […] After incubation, the medium was removed, and cells were treated according to the protocol ‘three reagent addition’ procedure for the HitHunter cAMP XS+Assay by DiscoverX, USA.

In series [5] the test system is Diet induced obese C57BL/6NTac male mice. The series can be described thus: Acute food intake in diet induced obese mice, s.c. (Example 11). Type of series: in vivo, mouse. To be noted: 15 nmol/kg s.c. Here is the method:
Diet induced obese C57BL/6NTac male mice were purchased from Taconic and continued on a high fat high sucrose diet with free access to water. One week after arrival, animals were double or single housed. […] Thirty minutes prior peptide injection, all mice were administered subcutaneously with DDP-4 inhibitor Valine-pyrrolidide (3 mg/mouse). Food intake was measured after 1, 2, 4 and 14 hours (FIG. 15A-D).

Another series has as its target T1, rat GLP-1 receptor (Rattus norvegicus, UniProt P32301).
T1 construct: expressed in transfected cells; host or cells: COS-7 (methods)
T1 sequence (P32301 22-463): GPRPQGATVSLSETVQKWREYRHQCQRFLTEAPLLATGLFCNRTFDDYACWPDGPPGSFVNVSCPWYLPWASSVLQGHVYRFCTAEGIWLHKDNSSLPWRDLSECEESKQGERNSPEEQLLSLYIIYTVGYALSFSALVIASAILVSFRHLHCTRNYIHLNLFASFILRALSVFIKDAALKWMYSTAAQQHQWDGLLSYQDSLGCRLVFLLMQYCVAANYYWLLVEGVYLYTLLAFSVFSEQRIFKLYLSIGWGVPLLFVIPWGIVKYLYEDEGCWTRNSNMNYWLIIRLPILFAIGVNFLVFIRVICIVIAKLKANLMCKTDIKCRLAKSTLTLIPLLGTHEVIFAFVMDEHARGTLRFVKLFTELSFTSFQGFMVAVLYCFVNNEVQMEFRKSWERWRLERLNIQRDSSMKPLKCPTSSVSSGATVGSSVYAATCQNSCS
The series can be described thus: cAMP accumulation, rat GLP-1 receptor. Type of series: cell-based. To be noted: rat GLP-1R-expressing HEK293 cells; read-out: EC50, intracellular cAMP accumulation. Here is the method: as §3, §4
(In general: cAMP levels reflect the balance of adenylyl cyclase and phosphodiesterase activity.)

The subject of series [6] is C57BL/6J mice. Kind of series: Acute food intake in lean mice, s.c. (Example 10). The class given is in vivo, mouse. The procedure:
Female C57BL/6J mice were purchased from Charles Rivers. One week before study initiation the mice were single housed with free access to food and water. […] Thirty minutes prior peptide injection, all mice were administered subcutaneously with DDP-4 inhibitor Valine-pyrrolidide (1.5 mg/mouse). Food intake was measured after 1, 2, 4 and 14 hours (FIG. 14A-D).
Results shown are combined data from five studies with an identical study design as described above. Between each study mice had at least one week washout period.

Setting [7] is: CSF 10 min after i.v. injection.

“TAMRA labelled SH-protein: SH protein (SEQ ID NO: 74) with N-terminal carboxytetramethyl rhodamine on the alpha amino-group of the first Methionine ({TAMRA}-MPAIQPPLYLTFLLLILLYLIITLYVWIILTVTYKTAVRHAALYQRSFFHWSFDHSL)”: in [1], the “concentrations at which binding to the choroid plexus is seen (only at higher concentrations)” value was 22 µM and 11 µM. Moreover, the “concentration at which binding to the choroid plexus is still seen” value in series [2] was 2,25 UM.
Broadly, the EC50 is the midpoint of the concentration-response curve. For `CC[C@H](C)[C@H](NC(=O)[C@H](C)NC(=O)[C@@H]1CCCN1)C(=O)N[C@@H](CCC(N)=O)C(=O)N1CCC[C@H]1C(=O)N1CCC[C@H]1C(=O)N[C@@H](CC(C)C)C(=O)N[C@@H](Cc1ccc(O)cc1)C(=O)N[C@@H](CC(C)C)C(=O)N[C@H](C(=O)NCCOCCOCC(=O)NCCCC[C@H](NC(=O)[C@H](C)NC(=O)[C@H](C)NC(=O)[C@H](CCC(N)=O)NC(=O)CNC(=O)[C@H](CCC(=O)O)NC(=O)[C@H](CC(C)C)NC(=O)[C@H](Cc1ccc(O)cc1)NC(=O)[C@H](CO)NC(=O)[C@H](CO)NC(=O)[C@@H](NC(=O)[C@H](CC(=O)O)NC(=O)[C@H](CO)NC(=O)[C@@H](NC(=O)[C@H](Cc1ccccc1)NC(=O)[C@@H](NC(=O)CNC(=O)[C@H](CCC(=O)O)NC(=O)[C@H](C)NC(=O)[C@@H](N)Cc1c[nH]cn1)[C@@H](C)O)[C@@H](C)O)C(C)C)C(=O)N[C@@H](CCC(=O)O)C(=O)N[C@@H](Cc1ccccc1)C(=O)N[C@H](C(=O)N[C@@H](C)C(=O)N[C@@H](Cc1c[nH]c2ccccc12)C(=O)N[C@@H](CC(C)C)C(=O)N[C@H](C(=O)N[C@@H](CCCNC(=N)N)C(=O)NCC(=O)N[C@@H](CCCNC(=N)N)C(N)=O)C(C)C)[C@@H](C)CC)[C@@H](C)O` [SH(2-11)-GLP-1(7-36)], the level at time molar at 10 min in series [3] (male, Sprague Dawley, cerebrospinal fluid (CSF), iv, CSF 10 minutes after injection into vena cava, SH(2-11)-GLP-1 500, GLP-1 50 (injection), read-out: CSF conc) is 277 µM. The “detectable in CSF by RIA GLP-1 assay” value in series [3] (10 min after i.v. injection) is on record as “detectable”. In series [3] (setting [7]), the “amount detectable within the CSF, of the total injected concentration” value is recorded as “approximately 55%”. For the same compound, the “concentrated more in the CSF compared to GLP-1(7-36)” value in series [3] (setting [7]) was found to be 10 times. Also, the “Ratio (CSF conc to injection conc)” value in series [3] (CSF 10 minutes after injection) amounted to 0.554. Also, the “higher presence within the CSF” value in series [3] (compared to GLP-1(7-36)) is reported as 10 fold. Also, the “food intake compared to vehicle” value in the series with C57BL/6J mice [4] (1 hour after injection) is recorded as “decreases the food intake significantly”; with C57BL/6J mice [4] (2 hours after injection), “decreases the food intake significantly”; in series [5] (after 1 hour, conjugate also vs GLP-1(7-36)), “decreased food intake significantly”; in series [5] (after 2 hours, conjugate also vs GLP-1(7-36)) it was “decreased food intake significantly”; in [5] (after 4 hours, conjugate also vs GLP-1(7-36)) it was “decreased food intake significantly”; in [5] (after 14 hours), “significantly decreased”. Besides, the “food intake compared to vehicle” value was “decreased food intake significantly” in the series on C57BL/6J mice [6] (15 nmol/kg s.c., after 1 hour); “decreased food intake significantly” in the series on C57BL/6J mice [6] (15 nmol/kg s.c., after 2 hours); “decreased food intake significantly” in the series on C57BL/6J mice [6] (15 nmol/kg s.c., after 4 hours); “decreased their food intake significantly” in the series with C57BL/6J mice [6] (30 nmol/kg s.c., after 1 hour); “decreased their food intake significantly” with C57BL/6J mice [6] (30 nmol/kg s.c., after 2 hours); “still present” in the series with C57BL/6J mice [6] (30 nmol/kg s.c., after 4 hours). Besides, the “food intake compared to vehicle” value in the series on C57BL/6J mice [6] (30 nmol/kg s.c., after 14 hours) was “significant lower food intake”. For the same compound, in the series with CaCo-2 cells, the “integrity of tight monolayer of CaCO-2 cells (uptake of fluorescent dye FITCs)” value is on record as “decreased integrity”. The EC50 on human GLP-1 receptor and at rat GLP-1 receptor was 0.13 nM each time.
